Measurements: patent US20060111289A1, “Compositions and methods of using Alpha-fetoprotein growth inhibitory peptides” (Serometrix, LLC,, priority 2004, published 2006)
Where a SMILES comes first, the peptide text is derived from it.

How the values were obtained:
[1] = system: immature mouse uterine growth; experiment: E2-activated immature mouse uterine growth assay; assay type: in vivo; design: % Inhibition Of Activity: Uterine Growth: concentration or dose not given beside the values; settings: for Inhibition in the mouse uterine assay: linear versus cyclic configuration
Experimental: FIG. 3 presents exemplary data showing the growth suppressive activities of the oligomeric forms of P149, cyclic versus linear, are depicted in various in vitro and in vivo models. Biological activity was determined by three growth-dependent bioassays, namely; • Panel-A and A1) an immature rodent uterine bioassay; • Panel-B and B 1) an in vitro MCF-7 foci assay; • Panel-C and C1) an in vitro tumor cell cytostatic assessment. […] See text for details. Scrambled peptide=P327. […]

MCF-7 cells = experiment: Estrogen-dependent MCF-7 foci formation assay; assay type: cell-based, human; design: % Inhibition Of Activity: MCF-7 foci formation: concentration or dose not given beside the values
From the text: Mizejewski et al., “Alpha-fetoprotein derived synthetic peptides: assay of an estrogen-modifying regulatory segment” Mol Cell Endocrinol 118:15-23 (1996). The P149 peptide inhibited the formation of tumor cell foci formed as a result of the accumulation of breast cancer cells which clump together due to loss of contact inhibition.

[2] = system: human kidney tumor cell line
[3] = system: 6WI-1 mammary tumor cells; experiment: Mouse ascites mammary tumor assay (6WI-1 isograft); assay type: in vivo
Experimental: The growth suppression of the mammary ascites tumor by AFP peptides and its fragments P149a, P149b and P149c, and control peptides were determined in non-estrogen dependent assays which measured tumor cell growth and ascites accumulation of 6WI-1 mammary transplanted NYLAR/nya mice. […] Tumor cell inocula included doses of 0.3, 1.0, and 3.0×10^6 cells which produced host mortality at 12-14 days which was lethal in 100% of the animals. Following peptide dose titration studies, mice inoculated with 6WI-1 mammary cells were injected with a previously-determined optimal dose of 1.0 μg peptide per day or saline for 11 days. On day 12 following inoculation, the total accumulated ascites fluid volume and tumor cells in the peritoneal cavity of each animal were harvested and the cell count determined.
Inoculation of mice with all three cell doses led to an increase in body weight from 25 g (day 0) to approximately […] by day 12, due to the accumulation of tumor cells and ascites fluid in the intraperitoneal cavity. An average cell count in accumulated ascites fluid on day 12 was greater than 10^8 cells/ml with a total ascites volume approximating 20 mls. Tumor cell proliferation in this model has been reported to correlate with the volume of ascites fluid accumulated.
The 6WI-1 mouse mammary tumor studies involving peptide and non-peptide treatment were further compared by histopathological analysis performed on hematoxylin/eosin stained tissue sections.

MCF-7 and GI-101 cells = experiment: ATP luminescence cytostatic assay (6 days); assay type: cell-based, human; settings: peptide 10^−12 to 10^−8 M
From the text: FIG. 2 presents exemplary data for both in vivo and in vitro growth suppressive activities of the GIP-derived P149 and control peptides are depicted in GI-101 human ductal breast carcinoma and in MCF-7 human glandular breast carcinoma. • Panels A and A2: GI-101 and MCF-7 xenograft in nude mice administered P149 time-release pellets for 60 days and 30 days, respectively (N=5 mice/group). • Panels B and B2: GI-101 and MCF-7 in cell cultures treated with P149 and P187 at concentrations from 10-8 to 10-12 M for 6 days and assayed by ATP luminescence reagent employing a luciferin-luciferase system. The ATP assay, used to distinguish between cytostasis versus cytotoxicity, was used to confirm that P149 was cytostatic in its cell inhibitory activity at 6 days (see text for details).
In order to confirm whether P149 was indeed cytostatic, and not cytotoxic, an ATP-based cytostatic assay was performed which measures the decrease in cytosolic ATP during drug (i.e., for example, GIP peptide) treatment. This ATP luminescence assay has long been employed to distinguish between cytostatic versus cytotoxic chemotherapeutic sensitivity of drugs. […] After incubation of the cell cultures for 6 days, cytosolic ATP was extracted, stabilized, and quantitated from a standard curve produced from Berthold LB-96P luminometer readings using a luciferin-luciferase counting reagent.

[4] = system: immature mouse uterine growth; experiment: E2-activated immature mouse uterine growth assay; assay type: in vivo; design: concentration or dose not given beside the values
Estrogen fetotoxicity = experiment: Estrogen fetotoxicity; design: concentration or dose not given beside the values; settings: in vivo
[5] = 6WI-1 mouse mammary ascites tumor

Compound | Inhibition in the mouse uterine assay [1] | Inhibition in the mouse uterine assay ([1]; listed as cyclic peptide) | Inhibition in the MCF-7 foci-assay (MCF-7 cells; linear versus cyclic configuration) | % Inhibition Of Activity: Kidney tumor growth [2] [%] | % Inhibition Of Activity: Uterine Growth ([1]; mouse, in vivo) [%] | % Inhibition Of Activity: 6WI-1 Acites Volume [3, 5] [%] | % Inhibition Of Activity: 6WI-1 Body Weight [3, 5] [%] | % Inhibition Of Activity: 6WI-1 Cell Prol [3, 5] [%] | % Inhibition Of Activity: 6WI-1 Peptide Combos ([3]; peptide combination) [%] | Growth inhibition / decrease in cytosolic ATP in the ATP luminescence assay (MCF-7 and GI-101 cells) | % Inhibition Of Activity: Uterine Growth, Enzymatic Fragments [4] [%] | % Inhibition Of Activity: MCF-7 foci formation (MCF-7 cells) [%] | % Inhibition Of Activity: Estrogen Fetotoxicty (Estrogen fetotoxicity) [%]
CC[C@H](C)[C@H](NC(=O)[C@@H]1CSSC[C@H](NC(=O)[C@H](C)NC(=O)[C@H](CC(C)C)NC(=O)[C@H](CC(C)C)NC(=O)[C@H](CCCCN)NC(=O)[C@H](CC(=O)O)NC(=O)[C@H](CCC(=O)O)NC(=O)[C@H](CO)NC(=O)[C@@H](N)CC(C)C)C(=O)NCC(=O)N[C@@H](CCC(=O)O)C(=O)NCC(=O)N[C@@H](C)C(=O)N[C@@H](C)C(=O)N[C@@H](CC(=O)O)C(=O)N[C@@H]([C@@H](C)CC)C(=O)N[C@@H]([C@@H](C)CC)C(=O)N[C@@H]([C@@H](C)CC)C(=O)NCC(=O)N[C@@H](Cc2c[nH]cn2)C(=O)N[C@@H](CC(C)C)C(=O)N1)C(=O)N[C@@H](CCCNC(=N)N)C(=O)N[C@@H](Cc1c[nH]cn1)C(=O)N[C@@H](CCC(=O)O)C(=O)N[C@@H](CCSC)C(=O)N[C@H](C(=O)N1CCC[C@H]1C(=O)N[C@H](C(=O)N[C@@H](CC(N)=O)C(=O)N1CCC[C@H]1C(=O)NCC(=O)N[C@H](C(=O)O)C(C)C)C(C)C)[C@@H](C)O [Cyclic GIP] (HELM PEPTIDE1{L.S.E.D.K.L.L.A.C.G.E.G.A.A.D.I.I.I.G.H.L.C.I.R.H.E.M.T.P.V.N.P.G.V}$PEPTIDE1,PEPTIDE1,9:R3-22:R3$$$V2.0; N-terminus and C-terminus assumed) | 20-25% | only marginally inhibitory | 20-25% |  |  |  |  |  |  |  |  |  | 
KDFIHKQGVALQTMKQELINLVKELVKPQIEAVADFSGLL (listed as Homo sapiens) [P192, reference compound] |  |  |  | 0 | 0 | 0 | 0 | 0 | 0 | not significantly different from the non-treated control | 0 | 0 | 0
